Measured values as given in patent US4639450A, “Polyprenylcarboxylic acid morpholides and pharmaceutical compositions” (Eisai Co., Ltd., priority 1979, dated 1987).

Key:
[1] = test system: liver dysfunction (hepatitis) induced by D-galactosamine; assay: Experiment II: effect on the liver dysfunction (hepatitis) induced by D-galactosamine, oral administration; assay type: in vivo, Rats of the SD series; settings: Tables 3 and 4, 400 mg/Kg each time, D-galactosamine hydrochloride 200 mg/Kg hypodermically; for GPT Value: normal 34.8 ± 1.9, control 395.7 ± 49.3; for Alkali Phosphatase Value: normal 49.3 ± 4.4, control 67.4 ± 2.9; for GOT Value: normal 129.4 ± 12.6, control 573.7 ± 59.1
Procedure: (§1) Rats of the SD series having a body weight of about 250 g were used as test animals. D-Galactosamine hydrochloride (250 mg/Kg each time) and the test compound (50 mg/Kg each time) were administered into the abdominal cavity according to the schedule described below. After termination of the experiment, blood was collected from the test animals, and the GOT value, GPT value and alkali phosphatase value, which are indicators of the degree of the liver dysfunction, were measured.
(§2) The test compound was suspended in a 5% aqueous solution of gum arabic and was administered in the form of the suspension. D-Galactosamine hydrochloride was dissolved in distilled water, the pH value of the solution was adjusted to 7 by potassium hydroxide and the resulting solution was administered. The test compound was administered to a group consisting of 9 rats, and in place of the test compound, a 5% aqueous solution of gum arabic free of the test compound was administered to a control group consisting of 14 rats. Neither the test compound nor D-galactosamine hydrochloride was administered to a normal group consisting of 9 rats.
The effect on the liver dysfunction (hepatitis) induced by D-galactosamine by oral administration was examined.
D-galactosamine hydrochloride (200 mg/Kg each time) was hypodermically administered, and the test compound (400 mg/Kg each time) was orally administered. The test compound-administered group consisted of 9 rats, the control group consisted of 14 rats, and the normal group consisted of 8 rats. The administration schedule was as follows.
(§3) Administration Schedule: [formula]
Other test conditions were the same as in Experiment I.

[2] = test system: liver dysfunction (hepatitis) induced by D-galactosamine; assay: Experiment I: effect on the liver dysfunction (hepatitis) induced by D-galactosamine, test compound administered into the abdominal cavity; assay type: in vivo, Rats of the SD series; settings: D-galactosamine hydrochloride 250 mg/Kg
Procedure: The effect on the liver dysfunction (hepatitis) induced by D-galactosamine by administration into the abdominal cavity was examined.
as §1, §2, §3

[3] = test system: rats of the Wistar series; settings: rat, in vivo, po, 4000 mg/kg
Procedure: The compounds C, D, I and M were separately suspended in 5% aqueous solutions of gum arabic and the test composition were orally administered to rats of the Wistar series at a dose of 4000 mg/Kg.

[4] = Table 1, 50 mg/Kg each time, normal 32.3 ± 3.3, control 94.2 ± 6.9
[5] = Table 1, 50 mg/Kg each time, normal 33.1 ± 2.3, control 509 ± 94
[6] = Table 1, 50 mg/Kg each time, normal 127.0 ± 6.1, control 751 ± 130
[7] = Table 2, 50 mg/Kg each time, normal 39.0 ± 2.4, control 992.3 ± 121.2
[8] = Table 2, 50 mg/Kg each time, normal 48.9 ± 4.7, control 125.7 ± 4.9
[9] = Table 2, 50 mg/Kg each time, normal 129.9 ± 10.1, control 1081.8 ± 90.3

SMILES	GPT Value [1]	Alkali Phosphatase Value [1]	GOT Value [1]	Alkali Phosphatase Value [2, 4]	GPT Value [2, 5]	GOT Value [2, 6]	death of rats [3]	GPT Value [2, 7]	Alkali Phosphatase Value [2, 8]	GOT Value [2, 9]
CC(C)CCCC(C)CCCC(C)CC(=O)N1CCOCC1 (stereo not shown) [compound A, 4-(3,7,11-trimethyldodecanoyl)morpholine]	62.1 ± 10.7 carmen unit	64.1 ± 4.6 KA unit	193.0 ± 18.5 carmen unit	31.9 ± 1.8 KA unit	46.8 ± 11 carmen unit	257.4 ± 31 carmen unit	–	–	–	–
CC(C)=CCC/C(C)=C/CCC(C)CC(=O)N1CCOCC1 (stereo not shown) [compound B, 4-[(E)-3,7,11-trimethyl-6,10-dodecadienoyl]morpholine]	67.4 ± 7.3 carmen unit	62.9 ± 4.9 KA unit	233.3 ± 22.2 carmen unit	40.2 ± 2.4 KA unit	50.4 ± 16 carmen unit	316 ± 27 carmen unit	–	–	–	–
CC(C)CCCC(C)CCCC(C)CCCC(C)CC(=O)N1CCOCC1 (stereo not shown) [compound C, 4-(3,7,11,15-tetramethylhexadecanoyl)morpholine]	122.0 ± 16.1 carmen unit	46.7 ± 4.0 KA unit	231.1 ± 26.4 carmen unit	23.5 ± 1.8 KA unit	40 ± 13 carmen unit	352 ± 34 carmen unit	None of the rats died	–	–	–
CC(C)=CCC/C(C)=C/CC/C(C)=C/CCC(C)CC(=O)N1CCOCC1 (stereo not shown) [compound D, 4-[(E,E)-3,7,11,15-tetramethyl-6,10,14-hexadecatrienoyl]morpholine]	58.8 ± 5.5 carmen unit	53.1 ± 5.6 KA unit	84.8 ± 8.9 carmen unit	28.5 ± 2.0 KA unit	94 ± 39 carmen unit	430 ± 58 carmen unit	None of the rats died	–	–	–
CC(C)=CCC/C(C)=C/CC/C(C)=C/CCC(C)CC(N)=O (stereo not shown) [compound E, (E,E)-3,7,11,15-tetramethyl-6,10,14-hexadecatrienamide]	–	–	–	32.1 ± 2.6 KA unit	64 ± 15 carmen unit	425 ± 24 carmen unit	–	–	–	–
CC(C)=CCC/C(C)=C/CC/C(C)=C/CCC(C)CC(=O)N(C)C (stereo not shown) [compound F, (E,E)-N,N-dimethyl-3,7,11,15-tetramethyl-6,10,14-hexadecatrienamide]	–	–	–	28.0 ± 2.4 KA unit	90 ± 44 carmen unit	400 ± 75 carmen unit	–	–	–	–
CC(C)=CCC/C(C)=C/CC/C(C)=C/CCC(C)CC(=O)N1CCN(CCO)CC1 (stereo not shown) [compound G, 1-[(E,E)-3,7,11,15-tetramethyl-6,10,14-hexadecatrienoyl]-4-(2-hydroxyethyl)piperazine]	–	–	–	29.6 ± 2.3 KA unit	84 ± 17 carmen unit	414 ± 49 carmen unit	–	–	–	–
CC(=CC(=O)N1CCOCC1)CCCC(C)CCCC(C)C (stereo not shown) [compound H, 4-(3,7,11-trimethyl-2-dodecaenoyl)morpholine]	–	–	–	–	–	–	–	511.3 ± 173.7 carmen unit	49.0 ± 1.9 KA unit	732.1 ± 147.3 carmen unit
CC(=CC(=O)N1CCOCC1)CCCC(C)CCCC(C)CCCC(C)C (stereo not shown) [compound I, 4-(3,7,11,15-tetramethyl-2-hexadecaenoyl)morpholine]	154.9 ± 21.5 carmen unit	44.31 ± 3.1 KA unit	284.9 ± 36.4 carmen unit	–	–	–	None of the rats died	135.3 ± 46.4 carmen unit	35.4 ± 5.2 KA unit	659.3 ± 72.5 carmen unit
CC(C)=CCCC(C)=CCCC(C)=CCCC(C)=CC(N)=O [compound J, 3,7,11,15-tetramethyl-2,6,10,14-hexadecatetraenamide]	–	–	–	–	–	–	–	314.5 ± 65.9 carmen unit	49.9 ± 3.0 KA unit	617.0 ± 50.5 carmen unit
CC(C)=CCCC(C)=CCCC(C)=CCCC(C)=CC(=O)N(C)C [compound K, N,N-dimethyl-3,7,11,15-tetramethyl-2,6,10,14-hexadecatetraenamide]	–	–	–	–	–	–	–	193.8 ± 38.1 carmen unit	45.2 ± 1.8 KA unit	586.0 ± 56.5 carmen unit
CC(C)=CCCC(C)=CCCC(C)=CCCC(C)=CC(=O)N1CCN(CCO)CC1 [compound L, 1-(3,7,11,15-tetramethyl-2,6,10,14-hexadecatetraenoyl)-4-(2-hydroxyethyl)piperazine]	–	–	–	–	–	–	–	138.1 ± 16.9 carmen unit	42.8 ± 1.8 KA unit	451.7 ± 37.9 carmen unit
CC(C)=CCCC(C)=CCCC(C)=CCCC(C)=CC(=O)N1CCOCC1 [compound M, 4-(3,7,11,15-tetramethyl-2,6,10,14-hexadecatetraenoyl)morpholine]	58.9 ± 7.3 carmen unit	59.4 ± 4.9 KA unit	178.4 ± 10.3 carmen unit	–	–	–	None of the rats died	–	–	–
